Test results reported in EP0806963B1, “CARCINOMA TREATMENT” (THE UNIVERSITY OF BIRMINGHAM, priority 1994, dated 1996).

Tests used:
[1] = system: Rat-1/CD40 CI.8 cell line; assay: MTT colorimetric cell growth assay (Mossman), CD40-transfected Rat-1 fibroblasts; format: cell-based
Text: A human ovarian carcinoma cell line A2780 and its cis-platin-resistant derivative 2780CP ( see Masuda et al., Cancer Res., 50, 1863-1866, 1990), an EJ bladder carcinoma cell line (Accession No.85061108, European Collection of Animal Cell Cultures, Porton Down, UK ) and Rat-1 fibroblasts (Lania et al., Virology, 101, 217-232, 1980) were continuously maintained in RPMI 1640 medium (GIBCOBRL, Life technologies Ltd, Paisley, Scotland) supplemented with 10% FCS (foetal calf serum - ICN Flow, Thane, Oxfordshire, England), 2mM glutamine, and the antibiotics, penicillin (1000 U/ml) and streptomycin (1mg/ml) (Sigma Co. Ltd, Poole, Dorset, England) at 37°C in a 5% CO2 atmosphere. […]
(§1) Inhibition of cell proliferation was evaluated using the colorimetric assay of Mossman (see Mossman, J. Immunol. Meths., 65, 55-63, 1983). […] Various concentrations of G28.5 mAb were then added and their effect on cell growth was evaluated after an appropriate period of time (48, 72 or 96 hrs) by the addition of 20 µl of 5 mg/ml MTT (3-([…])-2,5-diphenyl tetrazolium bromide) obtained from Sigma, in PBS. The cells were further incubated for 5 hrs at 37°C, formazan crystals thus formed were dissolved in DMSO and the optical density (O.D.) was recorded at 550nm on a Becton Dickinson Multiscan. […] After 48 hours, cell growth was assessed using the MTT assay as described above. […]

[2] = system: ovarian carcinoma cell line A2780; assay: MTT colorimetric cell growth assay (Mossman), A2780; format: cell-based, human; settings: 48 hour MTT assay
Text: A human ovarian carcinoma cell line A2780 and its cis-platin-resistant derivative 2780CP ( see Masuda et al., Cancer Res., 50, 1863-1866, 1990), an EJ bladder carcinoma cell line (Accession No.85061108, European Collection of Animal Cell Cultures, Porton Down, UK ) and Rat-1 fibroblasts (Lania et al., Virology, 101, 217-232, 1980) were continuously maintained in RPMI 1640 medium (GIBCOBRL, Life technologies Ltd, Paisley, Scotland) supplemented with 10% FCS (foetal calf serum - ICN Flow, Thane, Oxfordshire, England), 2mM glutamine, and the antibiotics, penicillin (1000 U/ml) and streptomycin (1mg/ml) (Sigma Co. Ltd, Poole, Dorset, England) at 37°C in a 5% CO2 atmosphere.
as §1

With `N.N.[Cl][Pt][Cl]` [cis-platin] the IC50 ([1]; cis-platin with 1 µg/ml G28.5 mAb, spread +/- 0.3) was 4.2 µM, the IC50 ([1]; cis-platin without G28.5 mAb, spread +/- 0.9) was 6 µM and the cell killing effect ([2]; 5 µM cis-platin alone) was 46%. It also gave a cell killing effect ([2]; 5 µM cis-platin with 10 µg/ml G28.5 mAb) of 61%.
